# Source: patent US12364738B2, “Composition comprising at least one enzyme and at least one microbicidal molecule for the prevention or treatment of post-implant infections” (ONELIFE S.A., priority 2016, dated 2025)
# Like-named read-outs stand apart in the source and are kept apart here. Marks after values point to notes of the source that are not given here.
# Assays:
# [1] = cited from earlier work
# [2] = system: isolate 5, E. coli isolated from a urinary catheter, biofilm; conditions: dynamic model, 48 h biofilm on PEG protrusions, 24 h treatment, agitation 120 RPM
# Procedure: (§1) In order to judge the effectiveness of a post-implantation treatment carried out with a composition according to the invention, the viability of the bacteria was measured by following the development of the colour of the resazurin (7-Hydroxy-3H-phenoxazin-3-on 10-oxide), this colour changing according to the redox potential which depends on microbial activity. The measurement was conventionally carried out by absorption photometry (measurement at 590 nm with the Spectramax M4 equipment).
# (§2) Before proceeding with the measurement of the viability of the bacterial cells with resazurin, the PEG plates with the protrusions containing the developed biofilms were incubated with resazurin for 2 hours in the dark.
# [3] = system: isolate 1, S. aureus MRSA strain 80124430375 (pacemaker), biofilm; conditions: static model, 24 h biofilm, 24 h treatment, ciprofloxacin 0.15 to 40 mg/L
# Procedure: (§3) The measurement was conventionally carried out by absorption photometry (measurement at 590 nm with the Spectramax M4 equipment).
# (§4) From each of the isolates given in table 1, biofilms (n=4) were developed over 24 hours at a temperature of 37° C. in the wells of a 96-well plate containing 200 μL of a TSB culture medium (Tryptic Soy Broth VWR) supplemented with 1% glucose and 2% sodium chloride.
# (§5) Before proceeding with the measurement of the viability of the bacterial cells with resazurin, the plates containing the developed biofilms were washed with a PBS buffer (pH=7.4) then incubated with resazurin (0.01 mg/L) for 1 hour in the dark.
# [4] = system: isolate 1, S. aureus isolated from a pacemaker, biofilm; conditions: dynamic model, 48 h biofilm on PEG protrusions, 24 h treatment, agitation 120 RPM
# Procedure: as §1, §2
# [5] = system: isolate 2, S. aureus MRSA strain 80224422456 (knee prosthesis), biofilm; conditions: static model, 24 h biofilm, 24 h treatment, ciprofloxacin 0.15 to 40 mg/L
# Procedure: as §3, §4, §5
# [6] = system: isolate 1, S. aureus isolated from a pacemaker, biofilm; assay: Confocal microscopic images with LIVE/DEAD staining, isolate 1; assay type: cell-based; conditions: 24 h biofilm, 24 h treatment, ciprofloxacin 1 mg/L, FIGS. 4 and 5
# Procedure: For isolate 1 (S. aureus isolated from a pacemaker on which a biofilm developed in the human body after implantation), confocal images were taken and correspond to FIGS. 3 to 5.
# Before obtaining the different images, staining was carried out with the LIVE/DEAD kit (Invitrogen) for 30 minutes before rinsing with a PBS buffer.
# [7] = system: isolate 8, E. faecalis strain 9781 (urinary catheter), biofilm; conditions: static model, 24 h biofilm, 24 h treatment, ciprofloxacin 0.15 to 40 mg/L
# Procedure: as §3, §4, §5
# [8] = system: isolate 3, S. aureus MRSA strain 80124474762 (knee screw), biofilm; conditions: static model, 24 h biofilm, 24 h treatment, ciprofloxacin 0.15 to 40 mg/L
# Procedure: as §3, §4, §5
# [9] = system: isolate 10, P. aeroginosa strain DIV5508 (central venous catheter), biofilm; conditions: static model, 24 h biofilm, 24 h treatment, ciprofloxacin 0.15 to 40 mg/L
# Procedure: as §3, §4, §5
# [10] = system: isolate 9, E. faecalis strain 9555 (urinary catheter), biofilm; conditions: static model, 24 h biofilm, 24 h treatment, ciprofloxacin 0.15 to 40 mg/L
# Procedure: as §3, §4, §5
# [11] = system: isolate 5, E. coli strain 6081 (urinary catheter), biofilm; conditions: static model, 24 h biofilm, 24 h treatment, ciprofloxacin 0.15 to 40 mg/L
# Procedure: as §3, §4, §5
# [12] = system: isolate 6, E. coli strain 5701 (orthopaedic implant), biofilm; conditions: static model, 24 h biofilm, 24 h treatment, ciprofloxacin 0.15 to 40 mg/L
# Procedure: as §3, §4, §5
# [13] = system: isolate 7, E. faecalis strain 9794 (urinary catheter), biofilm; conditions: static model, 24 h biofilm, 24 h treatment, ciprofloxacin 0.15 to 40 mg/L
# Procedure: as §3, §4, §5
# [14] = system: isolate 11, P. aeroginosa strain 04/190 (urinary catheter), biofilm; conditions: static model, 24 h biofilm, 24 h treatment, ciprofloxacin 0.15 to 40 mg/L
# Procedure: as §3, §4, §5
# [15] = system: isolate 4, S. epidermis strain 80224420266 (central venous catheter), biofilm; conditions: static model, 24 h biofilm, 24 h treatment, ciprofloxacin 0.15 to 40 mg/L
# Procedure: as §3, §4, §5
# [16] = serum, after administration of the antibiotic, based on EUCAST, used as test concentration
structure (smiles),measurement,setting,value
C[C@@H](O)[C@H]1C(=O)N2C(C(=O)O)=C(S[C@@H]3CN[C@H](C(=O)N(C)C)C3)[C@H](C)[C@H]12 [meropenem],"Cmin, minimum serum concentration",[1]; in vivo,100 ng/mL
same,"Cmax, maximum serum concentration after administration of the antibiotic",[1]; [16],20000 ng/mL
NCC[C@H](O)C(=O)N[C@@H]1C[C@H](N)[C@@H](O[C@H]2O[C@H](CN)[C@@H](O)[C@H](O)[C@H]2O)[C@H](O)[C@H]1O[C@H]1O[C@H](CO)[C@@H](O)[C@H](N)[C@H]1O [amikacin],"Cmin, minimum serum concentration",[1]; in vivo,5000 ng/mL
same,"Cmax, maximum serum concentration after administration of the antibiotic",[1]; [16],24000 ng/mL
NC[C@H]1O[C@H](O[C@H]2[C@H](O)[C@@H](O[C@H]3O[C@H](CO)[C@@H](O)[C@H](N)[C@H]3O)[C@H](N)C[C@@H]2N)[C@H](N)C[C@@H]1O [tobramycin],"Cmin, minimum serum concentration",[1]; in vivo,900 ng/mL
same,"Cmax, maximum serum concentration after administration of the antibiotic",[1]; [16],4000 ng/mL
"O=C(O)c1cn(C2CC2)c2cc(N3CCNCC3)c(F)cc2c1=O [solution A, ciprofloxacin]",Concentration of the antibiotic molecule in a solution comprising the antibiotic alone (solution A) to reduce the viability of the bacteria by 50% (EC50),[2],3.18 µg/mL
same,Concentration of the antibiotic molecule in a solution comprising the antibiotic alone (solution A) to reduce the viability of the bacteria by 50% (EC50),[3],>40^a mg/L
same,Concentration of the antibiotic molecule in a solution comprising the antibiotic alone (solution A) to reduce the viability of the bacteria by 50% (EC50),[4],0.7 µg/mL
same,Concentration of the antibiotic molecule in a solution comprising the antibiotic alone (solution A) to reduce the viability of the bacteria by 50% (EC50),[5],0.8 µg/mL
same,live/dead state of the bacteria in confocal images,[6],numerous bacteria are still alive
same,Concentration of the antibiotic molecule in a solution comprising the antibiotic alone (solution A) to reduce the viability of the bacteria by 50% (EC50),[7],>40 µg/mL
same,Concentration of the antibiotic molecule in a solution comprising the antibiotic alone (solution A) to reduce the viability of the bacteria by 50% (EC50),[8],1.2 µg/mL
same,Concentration of the antibiotic molecule in a solution comprising the antibiotic alone (solution A) to reduce the viability of the bacteria by 50% (EC50),[9],>40 µg/mL
same,Concentration of the antibiotic molecule in a solution comprising the antibiotic alone (solution A) to reduce the viability of the bacteria by 50% (EC50),[10],>40 µg/mL
same,"Cmin, minimum serum concentration",[1]; [16],600 ng/mL
same,Concentration of the antibiotic molecule in a solution comprising the antibiotic alone (solution A) to reduce the viability of the bacteria by 50% (EC50),[11],2.7 µg/mL
same,Concentration of the antibiotic molecule in a solution comprising the antibiotic alone (solution A) to reduce the viability of the bacteria by 50% (EC50),[12],>40 µg/mL
same,Concentration of the antibiotic molecule in a solution comprising the antibiotic alone (solution A) to reduce the viability of the bacteria by 50% (EC50),[13],>40 µg/mL
same,Concentration of the antibiotic molecule in a solution comprising the antibiotic alone (solution A) to reduce the viability of the bacteria by 50% (EC50),[14],>40 µg/mL
same,Concentration of the antibiotic molecule in a solution comprising the antibiotic alone (solution A) to reduce the viability of the bacteria by 50% (EC50),[15],1.77 µg/mL
COc1c(N2C[C@@H]3CCCN[C@@H]3C2)c(F)cc2c(=O)c(C(=O)O)cn(C3CC3)c12 [moxifloxacin],"Cmax, maximum serum concentration after administration of the antibiotic",[1]; [16],3600 ng/mL
same,"Cmin, minimum serum concentration",[1]; [16],300 ng/mL
